Measured values reported in patent publication US9963451B2, “Fused ring pyrimidine compound and pest control agent containing the same” (Mitsui Chemicals Agro, Inc., priority 2013, dated 2018).
Where a name gives a salt, the structure may show the parent alone. Read-outs that look alike come from different tables or passages of the source.

Experiments:
Assay type in all cases: in vivo
Laodelphax striatellus = assay: whole plant or invertebrate; conditions: for pest or weed control at 3 ppm / pest or weed control at 1 ppm: Laodelphax striatellus, in Oryza sativa, 144 h, read-out: Insect death ratio (%)
Method: Insecticidal Test Against Laodelphax striatellus
A chemical solution diluted to have a pre-determined concentration was sprayed to young rice plant (breed: Koshihikari) followed by air drying. Then, it was added to a glass test tube (diameter of 3 cm and height of 10 cm) added with water together with ten 3-stage larvae of Laodelphax striatellus. The tube was then covered. The number of living insects was determined after 6 days and the dead insect ratio was calculated. There were two series, i.e., 10 insects per group. Meanwhile, in Table 29, when combination of two types of test chemicals are used (i.e., A and B), the combination of the two types was described as A+B, and in the concentration column (ppm), it was described as concentration of A+concentration of B.

Chilo suppressalis = assay: Test Example 10: insecticidal test against Chilo suppressalis (rice stem dip, single and combined chemicals); conditions: after 6 days
Method: Insecticidal Test Against Chilo suppressalis
A stem part was cut from a rice plant (breed: Koshihikari) cultivated in water and it was immersed in a chemical solution which has been diluted to have a pre-determined concentration. After air drying, it was put into a 9 cm polyethylene cup having a water-wetted filter paper laid on the bottom thereof, and 3-stage larvae of Chilo suppressalis were released and covered. They were left to stand in an incubator at 25° C., and the numbers of living insects and dead insects were examined after 6 days. There were two series, i.e., 5 insects per group. Meanwhile, in Table 30, when combination of two types of test chemicals are used (i.e., A and B), the combination of the two types was described as A+B, and in the concentration column (ppm), it was described as concentration of A+concentration of B.

Pyricularia oryzae = assay: whole plant or invertebrate
Callosobruchus chinensis = assay: Test Example 5: insecticidal test against Callosobruchus chinensis (petri dish dry film); conditions: 24 h, read-out: insect death ratio
Method: Insecticidal Test Against Callosobruchus chinensis
1 ml of acetone solution in which a test compound had been diluted at a predetermined concentration was added dropwise to a petri dish having a diameter of 9 cm, and air dried, and then ten adults of Callosobruchus chinensis were released and the petri dish was covered. They were left to stand in an incubator at 25° C., and the numbers of living insects and dead insects were examined after 1 day. There was no series.

Plutella xylostella = assay: Test Example 4: insecticidal test against Plutella xylostella (cabbage leaf dip); conditions: foliar, 144 h, read-out: insect death ratio
Method: Insecticidal Test Against Plutella xylostella
A piece of a cabbage leaf was immersed for 30 seconds in a chemical solution in which the test compound had been added at a predetermined concentration, and air dried, and then put into a 7 cm polyethylene cup having a filter paper laid on the bottom thereof, and five 3-stage larvae of Plutella xylostella were released. They were left to stand in an incubator at 25° C., and the numbers of living insects and dead insects were examined after 6 days. There was no series.

[1] = Chilo suppressalis, 144 h, 1 ppm, read-out: Insect death ratio (%)
[2] = Chilo suppressalis, 144 h, read-out: Insect death ratio (%)
[3] = Pyricularia oryzae, 168 h, read-out: Rice blast control value
[4] = concentration of 1000 ppm, cabbage leaf dip, 3-stage larvae, 25° C., after 6 days

COP(=O)(NC(C)=O)SC (stereo not drawn) [Acephate, acephate]
pest or weed control at 3 ppm (Laodelphax striatellus): 20%

CC(C)N1C(=O)N(c2ccccc2)CS/C1=N\C(C)(C)C [Buprofezin, buprofezin]
pest or weed control at 1 ppm (Laodelphax striatellus; after 6 days): 70%

CN(C)C(CSC(N)=O)CSC(N)=O [Cartap, Cartap hydrochloride]
pest or weed control at 300 ppm (Chilo suppressalis; Chilo suppressalis, 144 h, 300 ppm, read-out: Insect death ratio (%)): 90%

CNC(=O)c1cc(Cl)cc(C)c1NC(=O)c1cc(Br)nn1-c1ncccc1Cl [Chlorantraniliprole, chlorantraniliprole]
pest or weed control at 1 ppm (Chilo suppressalis; [1]): 80%

CNC(=O)c1cc(C#N)cc(C)c1NC(=O)c1cc(Br)nn1-c1ncccc1Cl [Cyantraniliprole, cyantraniliprole]
pest or weed control at 1 ppm (Chilo suppressalis; [1]): 80%

CN(C(=O)c1ccccc1)c1cccc(C(=O)Nc2c(Br)cc(C(F)(C(F)(F)F)C(F)(F)F)cc2C(F)(F)F)c1F [DD-1]
pest or weed control at 0.1 ppm (Chilo suppressalis; [2]): 90%

CN(C(=O)c1ccc(F)cc1)c1cccc(C(=O)Nc2c(I)cc(C(F)(C(F)(F)F)C(F)(F)F)cc2C(F)(F)F)c1F [DD-2]
pest or weed control at 0.1 ppm (Chilo suppressalis; [2]): 100%

O=C(Nc1c(I)cc(C(F)(C(F)(F)F)C(F)(F)F)cc1C(F)(F)F)c1cccc(NC(=O)c2cccnc2Cl)c1 [DD-3]
pest or weed control at 0.1 ppm (Chilo suppressalis; [2]): 100%

C[C@@H](NC(=O)C(C#N)C(C)(C)C)c1ccc(Cl)cc1Cl (stereo partly drawn) [Diclocymet, diclocymet]
pest or weed control at 1.5 ppm (Pyricularia oryzae; [3]): 95%

CC1(C)N=C(c2cnc3ccccc3c2)c2ccccc2C1(F)F [EE-1]
pest or weed control at 50 ppm (Pyricularia oryzae; [3]): 97%

CC1(C)N=C(c2cnc3ccccc3c2)c2cccc(F)c2C1(C)C [EE-2]
pest or weed control at 50 ppm (Pyricularia oryzae; [3]): 95%

CC1(C)N=C(c2cnc3ccccc3c2)c2cccc(F)c2C1(F)F [EE-3]
pest or weed control at 50 ppm (Pyricularia oryzae; [3]): 97%

CC[S+]([O-])c1c(C#N)nn(-c2c(Cl)cc(C(F)(F)F)cc2Cl)c1N (stereo not drawn) [Ethiprole, ethiprole]
pest or weed control at 3 ppm (Laodelphax striatellus; 3 ppm, after 6 days): 20%

CCOc1ccc(C(C)(C)COCc2cccc(Oc3ccccc3)c2)cc1 [Ethofenprox, ethofenprox]
Insect death ratio (%) (Laodelphax striatellus; 30 ppm, after 6 days): 40%
Insect death ratio (%) (Chilo suppressalis; 100 ppm): 100%

N#Cc1nn(-c2c(Cl)cc(C(F)(F)F)cc2Cl)c(N)c1[S+]([O-])C(F)(F)F (stereo not drawn) [Fipronil, fipronil]
pest or weed control at 1 ppm (Laodelphax striatellus; after 6 days): 70%

Cc1cc(C(F)(C(F)(F)F)C(F)(F)F)ccc1NC(=O)c1cccc(I)c1C(=O)NC(C)(C)CS(C)(=O)=O [Flubendiamide, flubendiamide]
pest or weed control at 1 ppm (Chilo suppressalis; [1]): 80%

Cc1cc(O)no1 [Hydroxyisoxazole, hydroxyisoxazole]
Insect death ratio (%) (Laodelphax striatellus; 600 ppm, after 6 days): 0%

CC(C)OC(=O)C(C(=O)OC(C)C)=C1SCCS1 [Isoprothiolane, isoprothiolane]
pest or weed control at 6 ppm (Pyricularia oryzae; [3]): 97%

N#Cc1ccccc1NC(=O)c1snc(Cl)c1Cl [Isotianil, isotianil]
Rice blast control value (Pyricularia oryzae; 1 ppm, spots counted 7 days later): 97

CNC(=O)/C(=N/OC)c1ccccc1CO/N=C(C)/C(=N/OC)C(/C)=N/OC [Orysastrobin, orysastrobin]
Rice blast control value (Pyricularia oryzae; 3.5 ppm, spots counted 7 days later): 95

C=CCOC1=NS(=O)(=O)c2ccccc21 [Probenazole, probenazole]
pest or weed control at 12 ppm (Pyricularia oryzae; [3]): 96%

CC(=O)Oc1c(C)c(C)nc2c(F)cc(C(C)(C)C)cc12 [Tebufloquin, tebufloquin]
Rice blast control value (Pyricularia oryzae; 100 ppm, spots counted 7 days later): 98

Cc1ccc(C(=O)NC[C@@H](NC(=O)OCC(F)(F)F)C(C)C)cc1 [Tolprocarb, tolprocarb]
Rice blast control value (Pyricularia oryzae; in vivo): 97

Cc1cccc2sc3nncn3c12 [Tricyclazole, tricyclazole]
pest or weed control at 2 ppm (Pyricularia oryzae; [3]): 98%
pest or weed control at 200 ppm (Pyricularia oryzae; [3]): 97%

Cc1cc(=O)n2nc(S(C)(=O)=O)nc2n1Cc1ccc(Cl)nc1 [compound 10, 4-((6-chloropyridin-3-yl)methyl)-5-methyl-2-(methylsulfonyl)-[1,2,4]triazolo[1,5-a]pyrimidin-7(4H)-one]
pest or weed control at 1000 ppm (Callosobruchus chinensis): ≥ 70%

Cc1cc(=O)n2nc(SCc3cccc(C(F)(F)F)c3)nc2n1Cc1ccc(Cl)nc1 [compound 16]
pest or weed control at 1000 ppm (Plutella xylostella; [4]): ≥ 70%

Cc1cc(=O)n2nc(SCCC(F)(F)F)nc2n1Cc1ccc(Cl)nc1 [compound 22]
pest or weed control at 1000 ppm (Plutella xylostella): ≥ 70%

Cc1cc(=O)n2nc(SCCCC(F)(F)F)nc2n1Cc1ccc(Cl)nc1 [compound 23]
pest or weed control at 1000 ppm (Plutella xylostella): ≥ 70%

CSc1nc2n(Cc3ccc(Cl)nc3)c(C)cc(=S)n2n1 [compound 24, 4-((6-chloropyridin-3-yl)methyl)-5-methyl-2-(methylthio)-[1,2,4]triazolo[1,5-a]pyrimidin-7(4H)-thione]
pest or weed control at 1000 ppm (Plutella xylostella): ≥ 70%

CCc1c(C)n(Cc2ccc(Cl)nc2)c2nc(SC)nn2c1=O [compound 25]
pest or weed control at 1000 ppm (Plutella xylostella): ≥ 70%

Cc1cc(=O)n2nc([S+](C)[O-])nc2n1Cc1ccc(Cl)nc1 (stereo not drawn) [compound 26]
pest or weed control at 1000 ppm (Callosobruchus chinensis): ≥ 70%

Cc1cc(=O)n2nc(-c3ccccc3F)nc2n1Cc1ccc(Cl)nc1 [compound 28]
pest or weed control at 1000 ppm (Plutella xylostella): ≥ 70%

CCSc1nc2n(Cc3ccc(Cl)nc3)c(C)cc(=O)n2n1 [compound 29]
pest or weed control at 1000 ppm (Plutella xylostella): ≥ 70%

COc1nc2n(Cc3ccc(Cl)nc3)c(C)cc(=O)n2n1 [compound 45, 4-((6-chloropyridin-3-yl)methyl)-2-methoxy-5-methyl-[1,2,4]triazolo[1,5-a]pyrimidin-7(4H)-one]
pest or weed control at 1000 ppm (Callosobruchus chinensis): ≥ 70%

Cc1cc(=O)n2nc(OCC(F)(F)F)nc2n1Cc1ccc(Cl)nc1 [compound 46]
pest or weed control at 1000 ppm (Callosobruchus chinensis): ≥ 70%

Cc1cc(=O)n2nc(C(C)(F)F)nc2n1Cc1ccc(Cl)nc1 [compound 59]
pest or weed control at 1000 ppm (Callosobruchus chinensis): ≥ 70%

Cc1cc(=O)n2nc(S(C)(=O)=NC#N)nc2n1Cc1ccc(Cl)nc1 (stereo not drawn) [compound 76]
pest or weed control at 1000 ppm (Callosobruchus chinensis): ≥ 70%

Cc1cc(=O)n2nc(-n3cccn3)nc2n1Cc1ccc(Cl)nc1 [compound 80]
pest or weed control at 1000 ppm (Callosobruchus chinensis): ≥ 70%

Cc1cc(=O)n2nc(OC(C)c3ccc(C(F)(F)F)cc3)nc2n1Cc1ccc(Cl)nc1 (stereo not drawn) [compound 106]
pest or weed control at 1000 ppm (Plutella xylostella; [4]): ≥ 70%

CSc1nc2n(Cc3ccc(Cl)nc3)c(C)c/c(=N\O)n2n1 [compound 121, 4-((6-chloropyridin-3-yl)methyl)-5-methyl-2-(methylthio)-[1,2,4]triazolo[1,5-a]pyrimidin-7(4H)-oneoxime]
pest or weed control at 1000 ppm (Callosobruchus chinensis): ≥ 70%

Cc1cc(=O)n2nc([S+]([O-])CC(F)(F)F)nc2n1Cc1ccc(Cl)nc1 (stereo not drawn) [compound 189]
pest or weed control at 1000 ppm (Plutella xylostella): ≥ 70%

Cc1cc(=O)n2nc(S(=O)(=O)CC(F)(F)F)nc2n1Cc1ccc(Cl)nc1 [compound 190]
pest or weed control at 1000 ppm (Callosobruchus chinensis): ≥ 70%

CSc1cc2n(Cc3ccc(Cl)nc3)c(C)c(C)c(=O)n2n1 [compound 236]
pest or weed control at 1000 ppm (Plutella xylostella): ≥ 70%

CSc1cc2n(Cc3ccc(Cl)nc3)c(C)c(F)c(=O)n2n1 [compound 237]
pest or weed control at 1000 ppm (Plutella xylostella): ≥ 70%

Cc1cc(=O)n2nc(C(F)F)cc2n1Cc1ccc(Cl)nc1 [compound 241]
pest or weed control at 1000 ppm (Plutella xylostella): ≥ 70%

CCSc1cc2n(Cc3ccc(Cl)nc3)c(C)cc(=O)n2n1 [compound 243]
pest or weed control at 1000 ppm (Plutella xylostella): ≥ 70%

CC[S+]([O-])c1cc2n(Cc3ccc(Cl)nc3)c(C)cc(=O)n2n1 (stereo not drawn) [compound 244]
pest or weed control at 1000 ppm (Callosobruchus chinensis): ≥ 70%

Cc1cc(=O)n2nc(C(F)(F)F)cc2n1Cc1cnc(Cl)cc1Cl [compound 248]
pest or weed control at 1000 ppm (Callosobruchus chinensis): ≥ 70%

CCSc1cc2n(Cc3cnc(Cl)c(F)c3)c(C)cc(=O)n2n1 [compound 252]
pest or weed control at 1000 ppm (Callosobruchus chinensis): ≥ 70%

Cc1cc(=O)n2nc(C(F)(F)F)cc2n1Cc1cnc(Cl)c(F)c1 [compound 253]
pest or weed control at 1000 ppm (Callosobruchus chinensis): ≥ 70%

CSc1cc2n(Cc3cnc(Cl)nc3)c(C)cc(=O)n2n1 [compound 299]
pest or weed control at 1000 ppm (Callosobruchus chinensis): ≥ 70%

CSc1nc2n(Cc3cnc(Cl)c(F)c3)c(C)cc(=O)n2n1 [compound 306]
pest or weed control at 1000 ppm (Callosobruchus chinensis): ≥ 70%

CSc1cc2n(Cc3cnc(Cl)c(F)c3)c(C)cc(=O)n2n1 [compound 307]
pest or weed control at 1000 ppm (Callosobruchus chinensis): ≥ 70%

spinetoram
Insect death ratio (%) (Chilo suppressalis; 1 ppm): 100%

spinosad
Insect death ratio (%) (Chilo suppressalis; 1 ppm): 70%
